According to the NIST ThermoML archive (doi:10.1021/acs.jced.7b00429):

Experiment: xn = mol fraction of the nth substance listed
Conditions: 100 kPa, Liquid; for viscosity: Falling or rolling sphere viscometry; for speed of sound: Frequency=3 MHz, Single path-length method; for mass density: Vibrating tube method

CCn1cc[n+](C)c1.O=S(=O)([O-])C(F)(F)F [1-ethyl-3-methylimidazolium trifluoromethanesulfonate] + CC#N
Conditions | mass density [kg/m3] | speed of sound [m/s] | viscosity [mPa·s]
298.15 K, x1 = 0.1026 | 964.8 | 1309.2 | 0.85
298.15 K, x1 = 0.2053 | 1080.98 | 1337.4 | 1.88
298.15 K, x1 = 0.3044 | 1158.48 | 1360.9 | 2.99
298.15 K, x1 = 0.3948 | 1210.19 | 1377.9 | 4.51
298.15 K, x1 = 0.498 | 1256.19 | 1394.4 | 7.44
298.15 K, x1 = 0.595 | 1289.82 | 1408 | 10.9
298.15 K, x1 = 0.6936 | 1317.8 | 1418.6 | 15.92
298.15 K, x1 = 0.801 | 1342.54 | 1427.1 | 24.05
298.15 K, x1 = 0.9005 | 1362.36 | 1432.6 | 33.72
298.15 K, x1 = 1 | 1379.91 | 1436 | 45.67
303.15 K, x1 = 0.1026 | 959.72 | 1292 | 0.8
303.15 K, x1 = 0.2053 | 1076.24 | 1321.9 | 1.82
303.15 K, x1 = 0.3044 | 1153.77 | 1346.7 | 2.74
303.15 K, x1 = 0.3948 | 1205.75 | 1364.5 | 4.13
303.15 K, x1 = 0.498 | 1251.68 | 1381.5 | 6.64
303.15 K, x1 = 0.595 | 1285.38 | 1395.5 | 9.46
303.15 K, x1 = 0.6936 | 1313.46 | 1406.6 | 13.8
303.15 K, x1 = 0.801 | 1338.3 | 1415.2 | 20.32
303.15 K, x1 = 0.9005 | 1358.19 | 1421.3 | 27.94
303.15 K, x1 = 1 | 1375.71 | 1425.4 | 38.31
308.15 K, x1 = 0.1026 | 954.64 | 1274.9 | 0.75
308.15 K, x1 = 0.2053 | 1071.2 | 1306.5 | 1.65
308.15 K, x1 = 0.3044 | 1149.07 | 1332.5 | 2.52
308.15 K, x1 = 0.3948 | 1200.93 | 1351.3 | 3.76
308.15 K, x1 = 0.498 | 1247.19 | 1368.7 | 5.95
308.15 K, x1 = 0.595 | 1280.97 | 1383.2 | 8.41
308.15 K, x1 = 0.6936 | 1309.13 | 1394.7 | 12.08
308.15 K, x1 = 0.801 | 1334.18 | 1403.4 | 17.54
308.15 K, x1 = 0.9005 | 1354.05 | 1409.7 | 23.87
308.15 K, x1 = 1 | 1371.51 | 1414.3 | 32.38
313.15 K, x1 = 0.1026 | 949.54 | 1257.9 | 0.72
313.15 K, x1 = 0.2053 | 1066.32 | 1291.1 | 1.54
313.15 K, x1 = 0.3044 | 1144.37 | 1318.3 | 2.34
313.15 K, x1 = 0.3948 | 1196.39 | 1338.2 | 3.46
313.15 K, x1 = 0.498 | 1242.71 | 1356 | 5.37
313.15 K, x1 = 0.595 | 1276.68 | 1371.1 | 7.51
313.15 K, x1 = 0.6936 | 1304.82 | 1382.9 | 10.66
313.15 K, x1 = 0.801 | 1330.05 | 1391.6 | 15.27
313.15 K, x1 = 0.9005 | 1349.89 | 1398.1 | 20.58
313.15 K, x1 = 1 | 1367.36 | 1403 | 27.68
318.15 K, x1 = 0.1026 | 944.58 | 1241 | 0.68
318.15 K, x1 = 0.2053 | 1061.52 | 1275.8 | 1.42
318.15 K, x1 = 0.3044 | 1139.57 | 1304.3 | 2.16
318.15 K, x1 = 0.3948 | 1191.77 | 1325.1 | 3.17
318.15 K, x1 = 0.498 | 1238.2 | 1343.4 | 4.87
318.15 K, x1 = 0.595 | 1272.32 | 1359 | 6.75
318.15 K, x1 = 0.6936 | 1300.45 | 1371.3 | 9.46
318.15 K, x1 = 0.801 | 1325.89 | 1380.2 | 13.39
318.15 K, x1 = 0.9005 | 1345.74 | 1387.1 | 17.89
318.15 K, x1 = 1 | 1363.21 | 1392.7 | 23.86
323.15 K, x1 = 0.1026 | 939.47 | 1224.1 | 0.65
323.15 K, x1 = 0.2053 | 1056.45 | 1260.7 | 1.38
323.15 K, x1 = 0.3044 | 1134.77 | 1290.5 | 2.01
323.15 K, x1 = 0.3948 | 1187.31 | 1312.2 | 2.91
323.15 K, x1 = 0.498 | 1233.78 | 1330.9 | 4.43
323.15 K, x1 = 0.595 | 1267.96 | 1347.1 | 5.96
323.15 K, x1 = 0.6936 | 1296.17 | 1359.7 | 8.27
323.15 K, x1 = 0.801 | 1321.8 | 1368.6 | 11.66
323.15 K, x1 = 0.9005 | 1341.58 | 1375.7 | 15.49
323.15 K, x1 = 1 | 1359.07 | 1381.7 | 20.75
